Among the data in US5688789A, “PCP receptor ligands and the use thereof” (State of Oregon, acting by and through the Oregon State …, priority 1995, dated 1997) are IC50 values, retold here.

For the test, the target named is PCP receptor. As to the kind of experiment: PCP receptor affinity of IDDC analogs vs. [3H]MK-801 in rat brain membrane (Example 10, Table 2). The settings on record: read-out: PCP Receptor Affinity IC50 in Rat Brain Membrane vs. [3H]MK-801, MEAN.

As to `COc1ccc2c(c1)C1CN(C)C2Cc2ccc(Br)cc21` (racemic) [(±)-3-Br-7-OMe--N--Me-IDDC, 3-Bromo-7-methoxy-N-methyl-5-(iminomethano)-10,11-dihydro-5H-dibenzo[a,d]cycloheptene], the IC50 was 643 nM. Consider `COc1ccc2c(c1)C1CNC2Cc2ccc(Br)cc21` (racemic) [(±)-3-Br-7-OMe-IDDC, 3-bromo-7-methoxy-5-(iminomethano)-10,11-dihydro-5H-dibenzo[a,d]cycloheptene], for which the half-maximal inhibitory concentration (IC50) was found to be 114 nM.

On to `CN1CC2c3cc(Br)ccc3CC1c1ccccc12` (racemic) [(±)-3-Br--N--Me-IDDC, 3-bromo-N-methyl-5-(iminomethano)-10,11-dihydro-5H-dibenzo[a,d]cycloheptene], for which the IC50 was 1040 nM. Next, `Brc1ccc2c(c1)C1CNC(C2)c2ccccc21` (racemic) [(±)-3-Br-IDDC, 3-bromo-5-(iminomethano)-10,11-dihydro-5H-dibenzo-[a,d]cycloheptene]: 41 nM; `COc1ccc2c(c1)C1CNC2Cc2ccc(Cl)cc21` (racemic) [(±)-3-Cl-7-OMe-IDDC, 3-chloro-7-methoxy-5-(iminomethano)-10,11-dihydro-5H-dibenzo[a,d]cycloheptene]: 113 nM.

In the case of `Clc1ccc2c(c1)C1CNC(C2)c2ccccc21` (racemic) [(±)-3-Cl-IDDC], the half-maximal inhibitory concentration (IC50) was 64.2 nM. Next, `Fc1ccc2c(c1)C1CNC(C2)c2ccccc21` (racemic) [(±)-3-F-IDDC]: 29.4 nM; `Ic1ccc2c(c1)C1CNC(C2)c2ccccc21` (racemic) [(±)-3-Iodo-IDDC, 3-iodo-5-(iminomethano)-10,11-dihydro-5H-dibenzo-[a,d]cycloheptene]: 160 nM; `Nc1ccc2c(c1)C1CNC(C2)c2ccccc21` (racemic) [(±)-3-NH2-IDDC, 3-amino-5-(iminomethano)-10,11-dihydro-5H-dibenzo[a,d]cycloheptene]: 486 nM. To `COc1ccc2c(c1)C1CNC(C2)c2ccccc21` (racemic) [(±)-3-OMe-IDDC, 3-methoxy-5-(iminomethano)-10,11-dihydro-5H-dibenzo-[a,d]cycloheptane] belongs 168 nM; to `Clc1ccc2c(c1)C1CNC2Cc2ccccc21` (racemic) [(±)-7-Cl-IDDC, 7-Chloro-5-(iminomethano)-10,11-dihydro-5H-dibenzo-[a,d]cycloheptene], 690 nM; to `COc1ccc2c(c1)C1CNC2Cc2ccccc21` (racemic) [(±)-7-OMe-IDDC, 7-Methoxy-5-(iminomethano)-10,11-dihydro-5H-dibenzo-[a,d]cycloheptene], 332 nM. Consider `Clc1ccc2c(c1)C1CNC(C2)c2ccccc21` (single isomer, unassigned; (+)) [(+)-3-Chloro-IDDC, (+) 3-Chloro-5-(iminomethano)-10,11-dihydro-5H-dibenzo-[a,d]cycloheptene], for which the IC50 came to 14 nM. In the case of `Fc1ccc2c(c1)C1CNC(C2)c2ccccc21` (single isomer, unassigned; (+)) [(+)-3-Fluoro-IDDC, (+)-3-fluoro-5-(iminomethano)-10,11-dihydro-5H-dibenzo-[a,d]cycloheptene], the IC50 stood at 18 nM. In the case of `Clc1ccc2c(c1)C1CNC(C2)c2ccccc21` (single isomer, unassigned; (-)) [(-)-3-Chloro-IDDC, (-)-3-Chloro-5-(iminomethano)-10,11-dihydro-5H-dibenzo-[a,d]cycloheptene], the IC50 amounted to 110 nM.
